Data from ChEMBL document CHEMBL5150075 (J Med Chem, 2022).
The source made the active and inactive calls. The calls are words filed in the database; no cut-off is given here.

Tests used:
NCI-H1299 [1] = assay: Antitumor activity against human NCI-H1299 cells xenografted in BALB/c nude mouse assessed as suppression of tumor growth at 10 mg/kg, po administered once daily and measured twice a week relative to control; type: functional
DU-145 [2] = assay: Induction of apoptosis in human DU-145 cells assessed as late apoptotic cells at 0.03 uM incubated for 48 hrs by Annexin V-FITC/PI staining based flow cytometry analysis (reference value: 2.05%); type: functional
NCI-H460 = assay: cells; conditions: Homo sapiens, NCI-H460, 72 h
Description: Antiproliferative activity against human NCI-H460 cells assessed as inhibition of cell growth incubated for 72 hrs by MTT assay

[3] = Mutagenicity in Salmonella typhimurium TA-97 at 0.5 to 500 ug per plate incubated for 72 hrs in presence or absence of S9 fraction by Ames test; type: toxicity, Salmonella enterica subsp. enterica serovar Typhimurium; conditions: in vivo, dose 0.5-500 µg
[4] = Stability in dog liver microsomes assessed as half life incubated in presence of NADPH by LC-MS/MS analysis; type: ADME, Canis lupus familiaris, Microsome
DU-145 [5] = assay: Induction of apoptosis in human DU-145 cells assessed as live cells at 0.3 uM incubated for 48 hrs by Annexin V-FITC/PI staining based flow cytometry analysis (reference value: 94.94%); type: functional
DU-145 [6] = assay: Induction of apoptosis in human DU-145 cells assessed as increase in cleaved PARP level at 0.003 to 0.3 uM incubated for 48 hrs by Western blot analysis; type: functional, cell-based; conditions: dose 0.003-0.3 µM
[7] = Resistance index, ratio of IC50 for antiproliferative activity against paclitaxel-resistant human A549 cells to IC50 for antiproliferative activity against human A549 cells; type: functional
BGC-823 = assay: Antiproliferative activity against human BGC-823 cells assessed as inhibition of cell growth incubated for 72 hrs by MTT assay; type: functional, cell-based; conditions: BGC-823, 72 h
B16-F10 = assay: Antiproliferative activity against mouse B16-F10 cells assessed as inhibition of cell growth incubated for 72 hrs by MTT assay; type: functional, cell-based; conditions: B16-F10, 72 h
DU-145 [8] = assay: Induction of apoptosis in human DU-145 cells assessed as early apoptotic cells at 0.03 uM incubated for 48 hrs by Annexin V-FITC/PI staining based flow cytometry analysis (reference value: 1.97%); type: functional
DU-145 [9] = assay: Antiproliferative activity against human DU-145 cells assessed as inhibition of cell growth incubated for 96 hrs by real-time cell analysis; type: functional, cell-based; conditions: DU-145, 96 h
Bos taurus = organism: Bos taurus; assay: Inhibition of bovine brain tubulin polymerization measured every 30 secs by absorbance based analysis; conditions: dose 1-10 µM, time 30.0 sec, DDE = dose-dependent effect
[10] = Toxicity in specific pathogen-free Kunming mouse assessed as reduction in body weight at 10 mg/kg, po administered once daily and measured for 7 days; type: organism-based; conditions: in vivo, 168 h, time 7 day
[11] = Mutagenicity in Salmonella typhimurium TA-1535 at 0.5 to 500 ug per plate incubated for 72 hrs in presence or absence of S9 fraction by Ames test; type: toxicity, Salmonella enterica subsp. enterica serovar Typhimurium; conditions: in vivo, dose 0.5-500 µg
HCT-116 = assay: cells; conditions: Homo sapiens, HCT-116, 72 h
Description: Antiproliferative activity against human HCT-116 cells assessed as inhibition of cell growth incubated for 72 hrs by MTT assay

[12] = Cmax in Kunming mouse at 20 mg/kg, po by LC-MS/MS analysis; type: ADME, organism-based; parameters: dose 20 mg/kg, route po; conditions: in vivo
[13] = Resistance index, ratio of IC50 for antiproliferative activity against paclitaxel-resistant human MCF7R cells to IC50 for antiproliferative activity against human MCF7 cells; type: functional
HUVEC = assay: Anti-angiogenesis activity against HUVEC cells assessed as inhibition of cell growth incubated for 72 hrs by MTT assay; type: functional, cell-based; conditions: Homo sapiens
[14] = Mutagenicity in Salmonella typhimurium TA-102 at 0.5 to 500 ug per plate incubated for 72 hrs in presence or absence of S9 fraction by Ames test; type: toxicity, Salmonella enterica subsp. enterica serovar Typhimurium; conditions: in vivo, dose 0.5-500 µg
DU-145 [15] = assay: Antitumor activity against human DU-145 cells xenografted in BALB/c nude mouse assessed as tumor growth inhibition at 10 mg/kg, po administered once daily and measured twice a week relative to control; type: functional; conditions: read-out: TGI
DU-145 [16] = assay: Induction of G2/M phase cell cycle arrest in human DU-145 cells assessed as increase in cyclin B1 expression at 0.03 to 0.3 uM measured after 12 hrs by Western blot analysis; type: functional, cell-based; conditions: dose 0.03-0.3 µM
[17] = Mutagenicity in Salmonella typhimurium TA-98 at 0.5 to 500 ug per plate incubated for 72 hrs in presence or absence of S9 fraction by Ames test; type: toxicity, Salmonella enterica subsp. enterica serovar Typhimurium; conditions: in vivo, dose 0.5-500 µg
NCI-H1299 [18] = assay: Antitumor activity against human NCI-H1299 cells xenografted in BALB/c nude mouse assessed as suppression of tumor growth at 20 mg/kg, po administered once daily and measured twice a week relative to control; type: functional
DU-145 [19] = assay: Induction of apoptosis in human DU-145 cells assessed as dead cells at 0.3 uM incubated for 48 hrs by Annexin V-FITC/PI staining based flow cytometry analysis (reference value: 1.05%); type: functional
[20] = Toxicity in specific pathogen-free Kunming mouse assessed as pathological changes in colon tissues at 10 mg/kg, po administered once daily and measured after 7 days by hematoxylin and eosin staining based analysis; type: organism-based; conditions: in vivo, 168 h, time 7 day
MCF7R = assay: Antiproliferative activity against paclitaxel-resistant human MCF7R cells assessed as inhibition of cell growth incubated for 72 hrs by MTT assay; type: functional, cell-based; conditions: read-out: IC50
MCF7 = assay: cells; conditions: Homo sapiens, MCF7, 72 h
Description: Antiproliferative activity against human MCF7 cells assessed as inhibition of cell growth incubated for 72 hrs by MTT assay

A549 = assay: Antiproliferative activity against paclitaxel-resistant human A549 cells assessed as inhibition of cell growth incubated for 72 hrs by MTT assay; type: functional, cell-based; conditions: A549, 72 h
[21] = target: Voltage-gated inwardly rectifying potassium channel KCNH2 (Homo sapiens, UniProt Q12809); assay: Inhibition of hERG expressed in CHO cells by whole cell patch clamp method; type: toxicity, cell-based
Sequence of Voltage-gated inwardly rectifying potassium channel KCNH2 (Q12809 whole entry): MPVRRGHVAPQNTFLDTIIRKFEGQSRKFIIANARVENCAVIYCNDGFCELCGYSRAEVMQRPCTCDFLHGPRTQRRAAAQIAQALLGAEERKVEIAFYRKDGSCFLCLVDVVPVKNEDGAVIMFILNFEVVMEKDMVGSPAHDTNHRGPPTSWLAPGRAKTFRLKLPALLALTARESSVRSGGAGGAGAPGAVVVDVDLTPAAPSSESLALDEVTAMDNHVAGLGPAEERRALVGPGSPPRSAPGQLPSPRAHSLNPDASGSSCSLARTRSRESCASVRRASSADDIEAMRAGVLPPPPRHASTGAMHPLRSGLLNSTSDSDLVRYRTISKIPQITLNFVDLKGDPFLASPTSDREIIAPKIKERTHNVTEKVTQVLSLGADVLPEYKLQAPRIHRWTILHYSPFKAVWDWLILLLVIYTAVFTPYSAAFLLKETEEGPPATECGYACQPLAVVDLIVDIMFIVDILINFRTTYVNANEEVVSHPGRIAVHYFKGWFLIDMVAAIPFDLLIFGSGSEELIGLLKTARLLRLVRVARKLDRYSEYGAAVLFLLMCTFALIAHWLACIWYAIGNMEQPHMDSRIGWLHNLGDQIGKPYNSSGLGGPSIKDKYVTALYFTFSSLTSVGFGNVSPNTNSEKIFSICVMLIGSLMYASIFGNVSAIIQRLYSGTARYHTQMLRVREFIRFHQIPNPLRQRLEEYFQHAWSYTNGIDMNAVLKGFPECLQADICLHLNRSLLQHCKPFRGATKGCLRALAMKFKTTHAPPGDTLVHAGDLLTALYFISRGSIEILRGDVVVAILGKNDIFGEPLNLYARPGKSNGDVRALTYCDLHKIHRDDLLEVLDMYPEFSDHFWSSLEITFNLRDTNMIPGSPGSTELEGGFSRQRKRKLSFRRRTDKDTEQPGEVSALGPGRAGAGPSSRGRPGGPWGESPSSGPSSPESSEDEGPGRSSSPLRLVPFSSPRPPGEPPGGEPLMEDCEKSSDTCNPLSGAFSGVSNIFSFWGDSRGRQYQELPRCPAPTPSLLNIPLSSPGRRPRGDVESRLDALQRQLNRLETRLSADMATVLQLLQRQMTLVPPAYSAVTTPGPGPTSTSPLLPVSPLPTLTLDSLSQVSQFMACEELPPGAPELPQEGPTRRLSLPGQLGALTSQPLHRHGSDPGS

[22] = Toxicity in BALB/c nude mouse xenografted with human DU-145 cells assessed as reduction in body weight at 10 mg/kg, po administered once daily and measured twice a week; type: organism-based; parameters: scale not given: the % may be the effect or the level left; conditions: in vivo
DU-145 [23] = assay: Antitumor activity against human DU-145 cells xenografted in BALB/c nude mouse assessed as tumor growth inhibition at 5 mg/kg, po administered once daily and measured twice a week relative to control; type: functional; conditions: read-out: TGI
DU-145 [24] = assay: Antiproliferative activity against human DU-145 cells assessed as inhibition of cell growth incubated for 72 hrs by MTT assay; type: functional, cell-based; conditions: DU-145, 72 h
[25] = Stability in monkey liver microsomes assessed as half life incubated in presence of NADPH by LC-MS/MS analysis; type: ADME, Macaca mulatta, Microsome; conditions: rhesus monkey
DU-145 [26] = assay: Induction of apoptosis in human DU-145 cells assessed as live cells at 0.1 uM incubated for 48 hrs by Annexin V-FITC/PI staining based flow cytometry analysis (reference value: 94.94%); type: functional
DU-145 [27] = assay: Induction of apoptosis in human DU-145 cells assessed as dead cells at 0.03 uM incubated for 48 hrs by Annexin V-FITC/PI staining based flow cytometry analysis (reference value: 1.05%); type: functional
DU-145 [28] = assay: Induction of apoptosis in human DU-145 cells assessed as live cells at 0.03 uM incubated for 48 hrs by Annexin V-FITC/PI staining based flow cytometry analysis (reference value: 94.94%); type: functional

SMILES: Cc1ccc(S(=O)(=O)Nc2cc(C(=O)NCc3ccc(C)nc3)ccc2C)cc1
- Activity (NCI-H1299 [1]): 48.8%
- Activity (DU-145 [2]): 9.5%
- IC50 (NCI-H460): 77 nM
- Activity [3]: Non-Toxic
- half-life [4]: 2.2 h
- Activity (DU-145 [5]): 37.88%
- Activity (DU-145 [6]): Active
- Ratio IC50 [7]: 1.2
- IC50 (BGC-823): 21 nM
- IC50 (B16-F10): 2 nM
- Activity (DU-145 [8]): 13.66%
- IC50 (DU-145 [9]): 4 nM
- inhibition (Bos taurus): Dde
- Activity [10]: Non-Toxic
- Activity [11]: Non-Toxic
- IC50 (HCT-116): 4 nM
- Cmax [12]: 2740 ng/mL
- Ratio IC50 [13]: 2.48
- IC50 (HUVEC): 32 nM
- Activity [14]: Non-Toxic
- inhibition in vivo at 10 mg/kg (DU-145 [15]): 62.8%
- Activity (DU-145 [16]): Active
- Activity [17]: Non-Toxic
- Activity (NCI-H1299 [18]): 73.6%
- Activity (DU-145 [19]): 5.51%
- Activity [20]: Non-Toxic
- IC50 (MCF7R): 14 nM
- IC50 (MCF7): 6 nM
- IC50 (A549): 30 nM
- IC50 [21]: > 10000 nM
- Activity [22]: 3.5%
- inhibition in vivo at 5 mg/kg (DU-145 [23]): 37.4%
- IC50 (DU-145 [24]): 8 nM
- half-life [25]: 1.58 h
- Activity (DU-145 [26]): 43.52%
- Activity (DU-145 [27]): 2.95%
- Activity (DU-145 [28]): 73.88%
